Measured values reported in patent publication US20090275653A1, “POLYMORPHIC FORMS OF LADOSTIGIL TARTRATE” (priority 2005, published 2009).

Key:
[1] = Hygroscopicity study: exposure to 0-100% relative humidity at room temperature (Karl Fischer, TGA, crystal form by XRD); type: physicochemical; set-up: TGA: unit not given here
Description: Form E was placed for 1 week under 0-100% relative humidity at room temperature. Table 1 summarizes the results:
Form F was placed for 14 days under 0-100% relative humidity at room temperature. Table 2 summarizes the results:
Form H was placed for 14 days under 0-100% relative humidity at room temperature. Table 3 summarizes the results:
Form J1 was placed for 9 days under 0-100% relative humidity at room temperature. Table 4 summarizes the results:
Table 5 summarizes the results:
X-Ray powder diffraction data were obtained by method known in the art using a SCINTAG powder X-Ray diffractometer model X'TRA equipped with a solid state detector. Copper radiation of 1.5418 Å was used. A round aluminum sample holder with round zero background quartz plate, with a cavity of 25(diameter)*0.5(depth) mm was used.
(§1) TGA analysis was performed using a Mettler M3 meter. The weight of the samples was about 10 mg. The samples were scanned at a rate of 10° C./min from 25° C. to 200° C. The oven was constantly purged with nitrogen gas at a flow rate of 40 ml/min. Standard 70 μl alumina crucibles covered by lids with 1 hole were used.
(§2) The water content of ladostigil tartrate was measured by methods known in the art, such Karl Fischer analysis.
Crystal form was determined after equilibration of ladostigil tartrate form A for 10 days at various relative humidities at room temperature.
Form A1 was exposed at various humidity conditions at room temperature for 13 days.
Ladostigil tartrate form A1 was exposed to various humidity conditions at room temperature for 14 days. TGA was performed, and the crystal form was analyzed.
A mixture of ladostigil tartrate form A1 and E, containing primarily form A1, was exposed at various humidity conditions at room temperature for 14 days.
Form E was placed for 7 days under 0-100% relative humidity at room temperature. Table 12 summarizes the results:
Form F was placed for 14 days under 0-100% relative humidity at room temperature. Table 14 summarizes the results:
Ladostigil tartrate Form H was exposed for 14 days under 0-100% relative humidity at room temperature. Table 15 summarizes the results:
Crystal ladostigil tartrate Form J1 was placed for 9 days under 0-100% relative humidity at room temperature.

[2] = Effect of micronization, pressing and grinding (XRD); type: physicochemical; settings: pressing 1 minute at 100 metric tons
Method: The effects of micronization, pressing (1 minute at 100 metric tons) and grinding were determined by XRD and the following results were obtained: […]

Effect of freezing (XRD) = type: physicochemical; settings: freezer at about −25° C. for 3 months
Method: The effects of freezing was determined by XRD and the following results were obtained:
Form A1 was kept in a freezer at about −25° C. for 3 months. Form A1 transformed to Form A in freezer.

[3] = Water content (Karl Fischer) and loss on drying (TGA) of the form as obtained; type: physicochemical
Method: as §1, §2

[4] = test system: animal models of Alzheimer's disease; settings: background statement, literature; cited from earlier work
[5] = 100% RH, 13 days, room temperature
[6] = 100% RH, 14 days, room temperature

## carbamic acid, ethylmethyl-, (3R)-2,3-dihydro-3-(2-propynylamino)-1H-inden-5-yl ester, (2R,3R)-2,3-dihydroxybutanedioate (2:1) [Form A1, reference compound]
[1]; 0% RH, 13 days, room temperature
  KF (Karl Fischer analysis): 0.3%
[1]; 20% RH, 13 days, room temperature
  KF (Karl Fischer analysis): 0.3%
[1]; 40% RH, 13 days, room temperature
  KF (Karl Fischer analysis): 0.3%
[1]; 60% RH, 13 days, room temperature
  KF (Karl Fischer analysis): 0.3%
[1]; 60% RH, 14 days, room temperature
  TGA: 0.2
[1]; 80% RH, 13 days, room temperature
  KF (Karl Fischer analysis): 0.3%
[1]; 80% RH, 14 days, room temperature
  TGA: 0.1
[1]; [5]
  KF (Karl Fischer analysis): 0.5%
  Resulting form: partially transforms to form A
[1]; [6]
  Crystal Form (resulting form): mixture of Form A and A1
  TGA: 0.1
[1]; conclusion in words
  Hygroscopicity: neither Form A nor Form A1 is hygroscopic
[1]; high relative humidity, in words
  Crystal form upon exposure to high relative humidity: transforms to form A
[2]
  Crystallinity after pressing: lose some extent of crystallinity
Effect of freezing (XRD)
  Crystal form after freezing: Form A
[3]
  Weight loss / loss on drying by TGA: 0.3%
[3]; by weight
  Water content: about 0.3%

## C#CCN[C@@H]1CCc2ccc(OC(=O)N(C)CC)cc21 [Ladostigil, Ethyl-methyl-carbamic acid (R)-3-prop-2-ynylamino-indan-5-yl ester]
[4]
  Efficacy in animal models of Alzheimer's disease: effective
